Counter-ions that a name gives are not always drawn.
Key:
[1] = disclosed in U.S. Pat. No. 5,248,699; cited from earlier work
[2] = Solubility of the polymorphic form; format: physicochemical
[3] = Thermal stability / transformation on heating in a DSC apparatus; format: physicochemical
Method: The crystalline polymorph CSC2 upon heating is transformed into form V at temperatures of about >120° C., whereupon a second transformation takes place into form III at temperatures of about >160° C. (experiment performed in a DSC apparatus with heating rate of 20° C./minute).

[4] = DSC apparatus, heating rate of 20° C./minute

Compound | stability compared with the other crystalline forms of sertraline hydrochloride [1] | solubility [2] | thermal stability [3] | temperature of second transformation into form III upon heating [3, 4] | temperature of transformation into form V upon heating [3, 4]
CN[C@H]1CC[C@@H](c2ccc(Cl)c(Cl)c2)c2ccccc21 [form I, sertraline hydrochloride] | greatest stability | – | – | – | –
CN[C@H]1CC[C@@H](c2ccc(Cl)c(Cl)c2)c2ccccc21 [CSC2, (1S-cis)-4-(3,4-dichlorophenyl)-1,2,3,4-tetrahydro-N-methyl-1-naphthalenamine hydrochloride] | – | high | good | > 160 °C | > 120 °C
